# Assay results reported in paper PMC8212425 (Translational Vision Science & Technology, 2021).
# Read-outs that look alike come from different tables or passages of the source.
# Key:
# [1] = assay type: in vivo, New Zealand White rabbits; conditions: for Plasma concentration / AUC(0-t): 1 mg/eye; for Plasma concentration: below LOQ; for Cmax / Tmax: New Zealand White, rabbit, 1 mg; for AUC(0-t): NZW rabbits
# [2] = assay type: in vivo, Dutch Belted rabbits; conditions: for Cmax / Tmax: 4 mg; for AUC(0-t): DB rabbits, 91 days
# [3] = assay type: in vivo, rabbits; conditions: rabbit, RCS, sc, 1.05 mg/eye
# [4] = assay type: in vivo, Dutch Belted rabbits; conditions: for Tmax / Cmax / half-life: Dutch Belted, rabbit, sc; for AUC(0-t): DB rabbits
# [5] = vitreous humor, topical or ocular
# [6] = Dutch Belted, rabbit, RPE-choroid-sclera complex (RCS), sc
# [7] = Dutch Belted, rabbit, vitreous humor, sc
# [8] = SC, 4 mg/eye, throughout 91-day study, not detected/quantifiable, LOQ
# [9] = RPE-choroid-sclera complex (RCS), 0.03 mg
# [10] = RPE-choroid-sclera complex (RCS), 0.1 mg
# [11] = SC, 0.03 and 0.10 mg/eye, 10-week study
# [12] = SC, 0.03 and 0.1 mg/eye, any timepoint, not quantifiable, LOQ
smiles,measurement,setting,value
CNC(=O)c1ccccc1Sc1ccc2c(/C=C/c3ccccn3)n[nH]c2c1 [Axitinib],Plasma concentration,"[1]; IVT, all timepoints",< 0.150 ng/mL
same,Cmax,"[1]; posterior eye cup (PEC), sc",799000 ng/g
same,Tmax,"[1]; posterior eye cup (PEC), sc",6 h
same,Cmax,"[1]; posterior eye cup (PEC), topical or ocular",124000 ng/g
same,Cmax,"[1]; vitreous humor, sc",3670 ng/g
same,Tmax,"[1]; vitreous humor, sc",168 h
same,Cmax,[1]; [5],1.28e+06 ng/g
same,Tmax,[1]; [5],0.08 h
same,AUC(0-t),"[1]; PEC (posterior eye cup), SC injection",5208 µg·days/g
same,AUC(0-t),"[1]; PEC, IVT injection",471 µg·days/g
same,Plasma concentration,"[1]; SC, all timepoints except 6 hours",< 0.150 ng/mL
same,AUC(0-t),"[1]; vitreous humor, IVT injection",6208 µg·days/g
same,AUC(0-t),"[1]; vitreous humor, SC injection",19 µg·days/g
same,Cmax,[2]; [6],2.2e+07 ng/g
same,Tmax,[2]; [6],96 h
same,half-life,"[2]; Dutch Belted, rabbit, RPE-choroid-sclera complex (RCS), sc, 4 mg/eye",143 days
same,Cmax,"[2]; Dutch Belted, rabbit, retina, sc",325000 ng/g
same,concentration at 91 day,"[2]; Dutch Belted, rabbit, retina, sc, 4 mg/eye",305000 ng/g
same,Cmax,[2]; [7],858 ng/mL
same,Tmax,[2]; [7],96 h
same,AUC(0-t),"[2]; RCS (RPE-choroid-sclera, dose depot), SC, 4 mg/eye","1,260,000 µg·d/g"
same,Aqueous humor concentration,[2]; [8],< 1 ng/mL
same,Plasma concentration,[2]; [8],< 0.15 ng/mL
same,Vitreous humor level lower than that of RCS and retina,"[2]; SC, 4 mg/eye, density of vitreous humor assumed 1",3 to 4 log orders
same,AUC(0-t),"[2]; vitreous humor, SC, 4 mg/eye",31.1 µg·d/g or µg*d/mL
same,concentration at 182 day,[3],199000 ng/g
same,Tmax,[4]; RPE-choroid-sclera complex (RCS),24 h
same,Cmax,[4]; [9],37200 ng/g
same,Tmax,[4]; [9],24 h
same,half-life,[4]; [9],264 h
same,Cmax,[4]; [10],232000 ng/g
same,Tmax,[4]; [10],24 h
same,half-life,[4]; [10],384 h
same,Cmax,"[4]; retina, 0.03 mg",4480 ng/g
same,Tmax,"[4]; retina, 0.03 mg",24 h
same,Cmax,"[4]; retina, 0.1 mg",6260 ng/g
same,Tmax,"[4]; retina, 0.1 mg",24 h
same,Cmax,"[4]; vitreous humor, 0.03 mg",4.01 ng/mL
same,Tmax,"[4]; vitreous humor, 0.03 mg",24 h
same,Cmax,"[4]; vitreous humor, 0.1 mg",4.58 ng/mL
same,Tmax,"[4]; vitreous humor, 0.1 mg",24 h
same,AUC(0-t),"[4]; RCS, SC, 0.03 mg/eye",338 µg·days/g
same,AUC(0-t),"[4]; RCS, SC, 0.1 mg/eye",2320 µg·days/g
same,Mean AUC0-∞ after 0.10 mg dose versus 0.03 mg dose,"[4]; RCS, SC, dose ratio 3.33",~7 fold
same,Mean Cmax after 0.10 mg dose versus 0.03 mg dose,"[4]; RCS, SC, dose ratio 3.33",approximately 6 fold
same,RCS (dose depot) level higher than retina,[4]; [11],1 to 2 orders of magnitude
same,Retina level higher than vitreous humor,[4]; [11],3 to 4 orders of magnitude
same,Aqueous humor concentration,[4]; [12],< 1 ng/mL
same,Plasma concentration,[4]; [12],< 0.15 ng/mL
same,AUC(0-t),"[4]; retina, SC, 0.03 mg/eye",17.3 µg·days/g
same,AUC(0-t),"[4]; retina, SC, 0.1 mg/eye",28.1 µg·days/g
